From US12428408B2, “Fused heterocyclic mescaline derivatives” (Enveric Biosciences Canada Inc., priority 2022, dated 2025)
Read-outs that look alike come from different tables or passages of the source.

Tests used:
5-HT7 (h) = target: T1, 5-HT7 (h) (Homo sapiens, UniProt P34969); assay: Competition assay to measure binding affinity at 5-HT7 receptor; settings: test ligand 10 μM; [3H]LSD 4 nM
T1 construct: host or cells: HEK-293 cells

D3 (h) = target: T2, D3 (h) (Homo sapiens, UniProt P35462); assay: Competition assay to measure binding affinity at D3 receptor; settings: test ligand 10 μM; [3H]methylspiperone […]
T2 construct: host or cells: CHO cells

5-HT1A receptor [1] = target: T3, 5-HT1A receptor (Homo sapiens, UniProt P08908); assay: Functional 5-HT1A receptor cAMP assay in CHO-K1/5-HT1A/Gα15 cells; assay type: cell-based; settings: for 5-HT1A receptor engagement (change in cAMP levels), in words: +5-HT1A cells, 4 μM forskolin, FIGS. 37B-37H
T3 construct: purchased Perkin Elmer 6110501400UA
T3 sequence (P08908 1-422): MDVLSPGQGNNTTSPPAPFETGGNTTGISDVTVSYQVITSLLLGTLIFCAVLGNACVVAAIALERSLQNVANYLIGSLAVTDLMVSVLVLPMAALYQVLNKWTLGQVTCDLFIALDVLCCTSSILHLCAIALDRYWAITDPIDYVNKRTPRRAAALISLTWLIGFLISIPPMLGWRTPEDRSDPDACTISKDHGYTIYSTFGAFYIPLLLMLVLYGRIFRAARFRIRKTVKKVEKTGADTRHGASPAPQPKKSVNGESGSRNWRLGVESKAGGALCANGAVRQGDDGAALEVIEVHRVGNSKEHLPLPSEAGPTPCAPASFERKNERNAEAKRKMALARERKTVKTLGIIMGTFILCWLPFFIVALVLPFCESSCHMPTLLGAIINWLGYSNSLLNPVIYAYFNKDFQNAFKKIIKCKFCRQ

[2] = target: T4, human serotonin transporter (SERT) (Homo sapiens, UniProt P31645); assay: biochemical; assay type: binding
T4 construct: purchased PerkinElmer RBHSTM400UA

5-HT2B (h) = target: T5, 5-HT2B (h) (Homo sapiens, UniProt P41595); assay: Competition assay to measure binding affinity at 5-HT2B receptor; settings: test ligand 10 μM; [3H]mesulergine 2 nM
T5 construct: host or cells: CHO cells

5-HT2C (h) = target: T6, 5-HT2C (h) (Homo sapiens, UniProt P28335); assay: Competition assay to measure binding affinity at 5-HT2C receptor; settings: test ligand 10 μM; [125I](±)DOI 0.1 nM
T6 construct: host or cells: HEK-293 cells
T6 sequence (P28335 33-458): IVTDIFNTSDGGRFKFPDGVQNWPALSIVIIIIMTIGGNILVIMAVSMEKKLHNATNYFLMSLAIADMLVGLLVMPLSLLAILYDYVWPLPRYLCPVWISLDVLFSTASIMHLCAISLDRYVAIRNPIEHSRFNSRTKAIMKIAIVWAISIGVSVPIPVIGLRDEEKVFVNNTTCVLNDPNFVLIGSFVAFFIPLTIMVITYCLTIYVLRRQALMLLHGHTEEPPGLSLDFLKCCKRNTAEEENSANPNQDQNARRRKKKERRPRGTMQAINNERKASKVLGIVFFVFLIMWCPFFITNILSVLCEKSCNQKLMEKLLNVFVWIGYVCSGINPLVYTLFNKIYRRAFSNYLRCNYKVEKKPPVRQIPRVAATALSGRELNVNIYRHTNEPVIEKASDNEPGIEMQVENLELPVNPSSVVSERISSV

5-HT2A receptor = 5-HT2A receptor (Homo sapiens, UniProt P28223); assay: 5-HT2A receptor radioligand competition assay (SPA)
5-HT1A receptor [3] = target: T3, 5-HT1A receptor; assay: 5-HT1A receptor radioligand competition assay (SPA); assay type: binding; settings: competition with 0.5 nM 8-hydroxy-DPAT [3H]; test compound 3 nM to 1 mM; read-out: 5-HT1A, Ki
5-HT1B (h) = target: T7, 5-HT1B (h) (Homo sapiens, UniProt P28222); assay: Competition assay to measure binding affinity at 5-HT1B receptor; settings: test ligand 10 μM; [3H]GR125743 1 nM
T7 construct: host or cells: Chem-1 (RBL) cells

alpha2A (h) = target: T8, alpha2A (h) (Homo sapiens, UniProt P08913); assay: Competition assay to measure binding affinity at alpha2A receptor; settings: test ligand 10 μM, [3H]RX 821002 1 nM; for inhibition at 10 µM: read-out: α-2A, percent of control-specific binding
T8 construct: host or cells: CHO cells
T8 sequence (P08913 1-465): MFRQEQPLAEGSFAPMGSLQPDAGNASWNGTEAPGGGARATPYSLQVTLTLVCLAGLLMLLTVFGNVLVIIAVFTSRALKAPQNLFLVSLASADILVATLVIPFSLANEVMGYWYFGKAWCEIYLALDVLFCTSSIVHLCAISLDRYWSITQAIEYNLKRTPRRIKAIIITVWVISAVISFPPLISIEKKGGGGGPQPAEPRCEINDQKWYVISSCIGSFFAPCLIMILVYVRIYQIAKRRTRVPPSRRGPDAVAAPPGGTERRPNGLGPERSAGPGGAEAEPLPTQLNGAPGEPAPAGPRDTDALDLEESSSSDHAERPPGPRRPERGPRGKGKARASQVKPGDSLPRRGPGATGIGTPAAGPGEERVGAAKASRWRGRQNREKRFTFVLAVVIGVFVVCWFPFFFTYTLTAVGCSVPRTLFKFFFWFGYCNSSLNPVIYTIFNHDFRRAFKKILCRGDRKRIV

DAT (h) = target: T9, DAT (h) (Homo sapiens, UniProt Q01959); assay: Competition assay to measure binding affinity at dopamine transporter (DAT); settings: test ligand 10 μM; [3H]BTCP 4 nM
T9 construct: host or cells: CHO cells

5-HT1D (r) = target: T10, 5-HT1D (r) (Rattus norvegicus, UniProt P28565); assay: Competition assay to measure binding affinity at 5-HT1D receptor; settings: test ligand 10 μM; [3H]serotonin 1 nM
T10 construct: host or cells: CHO cells

NET (h) = target: T11, NET (h) (Homo sapiens, UniProt P23975); assay: Competition assay to measure binding affinity at norepinephrine transporter (NET); settings: test ligand 10 μM; [3H]nisoxetine 1 nM
T11 construct: host or cells: CHO cells

MT1 (ML1A) (h) = target: T12, MT1 (ML1A) (h) (Homo sapiens, UniProt P48039); assay: Competition assay to measure binding affinity at MT1 receptor; settings: test ligand 10 μM; [125I]2-iodomelatonin 0.01 nM
T12 construct: host or cells: CHO cells

D2 (h) = target: T13, D2 (h) (Homo sapiens, UniProt P14416); assay: Competition assay to measure binding affinity at D2L receptor; settings: test ligand 10 μM; [3H]methylspiperone 0.3 nM
T13 construct: host or cells: HEK-293 cells
T13 sequence (P14416 whole entry): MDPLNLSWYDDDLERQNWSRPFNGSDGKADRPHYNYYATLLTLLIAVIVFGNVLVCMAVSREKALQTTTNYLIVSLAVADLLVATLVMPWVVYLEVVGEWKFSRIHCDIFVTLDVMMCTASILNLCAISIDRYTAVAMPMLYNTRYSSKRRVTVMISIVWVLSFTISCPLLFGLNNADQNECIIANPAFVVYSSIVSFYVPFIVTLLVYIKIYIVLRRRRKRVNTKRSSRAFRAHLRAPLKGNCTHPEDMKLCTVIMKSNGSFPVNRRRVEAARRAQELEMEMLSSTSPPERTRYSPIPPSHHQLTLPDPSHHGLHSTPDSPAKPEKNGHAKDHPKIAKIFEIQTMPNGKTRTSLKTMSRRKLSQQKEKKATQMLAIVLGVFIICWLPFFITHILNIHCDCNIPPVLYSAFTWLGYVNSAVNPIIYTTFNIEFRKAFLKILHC

T11 sequence (P23975 whole entry): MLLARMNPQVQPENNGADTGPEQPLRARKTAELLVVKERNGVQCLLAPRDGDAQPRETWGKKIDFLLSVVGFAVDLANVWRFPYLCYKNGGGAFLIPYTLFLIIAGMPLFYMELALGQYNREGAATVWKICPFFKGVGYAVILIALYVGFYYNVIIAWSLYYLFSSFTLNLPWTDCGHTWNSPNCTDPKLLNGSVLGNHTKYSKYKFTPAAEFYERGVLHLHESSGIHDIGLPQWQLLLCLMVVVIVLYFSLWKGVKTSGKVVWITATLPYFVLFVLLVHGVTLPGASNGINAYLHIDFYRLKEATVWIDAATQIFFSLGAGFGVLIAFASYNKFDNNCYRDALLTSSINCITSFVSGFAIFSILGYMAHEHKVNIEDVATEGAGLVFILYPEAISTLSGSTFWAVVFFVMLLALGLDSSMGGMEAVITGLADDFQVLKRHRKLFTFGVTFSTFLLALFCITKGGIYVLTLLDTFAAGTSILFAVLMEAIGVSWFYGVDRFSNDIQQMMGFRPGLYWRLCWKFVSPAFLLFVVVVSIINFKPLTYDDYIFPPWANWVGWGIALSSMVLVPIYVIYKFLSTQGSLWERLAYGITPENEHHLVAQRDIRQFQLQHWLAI
T9 sequence (Q01959 whole entry): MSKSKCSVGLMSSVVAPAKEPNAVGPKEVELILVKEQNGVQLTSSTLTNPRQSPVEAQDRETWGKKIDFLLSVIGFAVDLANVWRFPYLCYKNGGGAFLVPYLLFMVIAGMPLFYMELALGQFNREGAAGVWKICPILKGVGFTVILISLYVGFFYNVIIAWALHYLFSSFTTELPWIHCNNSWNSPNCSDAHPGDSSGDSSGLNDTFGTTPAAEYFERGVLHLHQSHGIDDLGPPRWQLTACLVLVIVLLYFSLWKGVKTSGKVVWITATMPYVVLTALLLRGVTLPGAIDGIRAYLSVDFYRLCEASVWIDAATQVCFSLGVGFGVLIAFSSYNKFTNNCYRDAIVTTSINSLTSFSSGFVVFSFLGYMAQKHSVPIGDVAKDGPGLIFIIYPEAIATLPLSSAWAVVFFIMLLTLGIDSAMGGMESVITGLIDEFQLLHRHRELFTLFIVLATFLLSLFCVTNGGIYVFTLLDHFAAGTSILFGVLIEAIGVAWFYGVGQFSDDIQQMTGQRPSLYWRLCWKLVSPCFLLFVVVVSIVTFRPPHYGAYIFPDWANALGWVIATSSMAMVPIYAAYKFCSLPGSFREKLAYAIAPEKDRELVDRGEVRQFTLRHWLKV
T4 sequence (P31645 whole entry): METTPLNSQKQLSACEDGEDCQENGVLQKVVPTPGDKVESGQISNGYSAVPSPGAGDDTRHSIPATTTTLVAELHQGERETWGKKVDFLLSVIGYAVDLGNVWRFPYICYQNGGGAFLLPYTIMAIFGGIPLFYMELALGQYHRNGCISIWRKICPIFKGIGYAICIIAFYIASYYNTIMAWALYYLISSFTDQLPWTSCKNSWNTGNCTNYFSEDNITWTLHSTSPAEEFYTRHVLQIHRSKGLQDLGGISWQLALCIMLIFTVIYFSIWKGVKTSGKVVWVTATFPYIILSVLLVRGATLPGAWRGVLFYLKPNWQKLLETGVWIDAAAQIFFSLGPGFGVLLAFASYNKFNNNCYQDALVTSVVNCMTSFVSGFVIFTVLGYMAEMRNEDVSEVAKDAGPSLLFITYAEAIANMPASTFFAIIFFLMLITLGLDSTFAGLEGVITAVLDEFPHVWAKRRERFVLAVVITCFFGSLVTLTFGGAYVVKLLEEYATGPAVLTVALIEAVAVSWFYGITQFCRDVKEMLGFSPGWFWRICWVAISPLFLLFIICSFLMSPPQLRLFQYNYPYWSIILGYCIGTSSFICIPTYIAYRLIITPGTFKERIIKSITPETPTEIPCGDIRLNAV
T7 sequence (P28222 whole entry): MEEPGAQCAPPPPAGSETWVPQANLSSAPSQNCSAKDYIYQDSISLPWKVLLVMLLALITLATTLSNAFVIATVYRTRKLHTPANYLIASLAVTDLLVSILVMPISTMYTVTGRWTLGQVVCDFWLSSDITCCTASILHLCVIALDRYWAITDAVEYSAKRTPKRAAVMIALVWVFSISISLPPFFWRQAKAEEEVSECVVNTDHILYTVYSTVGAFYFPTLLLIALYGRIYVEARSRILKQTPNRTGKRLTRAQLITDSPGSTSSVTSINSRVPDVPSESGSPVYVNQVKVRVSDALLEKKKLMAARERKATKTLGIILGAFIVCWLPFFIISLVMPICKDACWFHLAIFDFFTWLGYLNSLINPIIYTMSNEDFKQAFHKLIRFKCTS
T5 sequence (P41595 whole entry): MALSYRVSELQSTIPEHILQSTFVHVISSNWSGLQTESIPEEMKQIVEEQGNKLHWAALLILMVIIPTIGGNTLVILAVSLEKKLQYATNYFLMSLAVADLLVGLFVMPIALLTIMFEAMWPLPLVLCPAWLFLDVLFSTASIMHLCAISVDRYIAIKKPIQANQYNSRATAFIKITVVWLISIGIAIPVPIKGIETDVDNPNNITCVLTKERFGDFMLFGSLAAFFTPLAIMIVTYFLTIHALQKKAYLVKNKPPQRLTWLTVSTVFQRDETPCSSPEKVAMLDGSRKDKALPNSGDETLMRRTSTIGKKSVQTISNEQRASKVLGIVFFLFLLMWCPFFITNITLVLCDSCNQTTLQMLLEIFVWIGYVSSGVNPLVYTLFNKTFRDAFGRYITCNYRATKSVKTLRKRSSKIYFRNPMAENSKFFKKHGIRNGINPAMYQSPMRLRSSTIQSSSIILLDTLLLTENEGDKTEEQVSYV
T1 sequence (P34969 whole entry): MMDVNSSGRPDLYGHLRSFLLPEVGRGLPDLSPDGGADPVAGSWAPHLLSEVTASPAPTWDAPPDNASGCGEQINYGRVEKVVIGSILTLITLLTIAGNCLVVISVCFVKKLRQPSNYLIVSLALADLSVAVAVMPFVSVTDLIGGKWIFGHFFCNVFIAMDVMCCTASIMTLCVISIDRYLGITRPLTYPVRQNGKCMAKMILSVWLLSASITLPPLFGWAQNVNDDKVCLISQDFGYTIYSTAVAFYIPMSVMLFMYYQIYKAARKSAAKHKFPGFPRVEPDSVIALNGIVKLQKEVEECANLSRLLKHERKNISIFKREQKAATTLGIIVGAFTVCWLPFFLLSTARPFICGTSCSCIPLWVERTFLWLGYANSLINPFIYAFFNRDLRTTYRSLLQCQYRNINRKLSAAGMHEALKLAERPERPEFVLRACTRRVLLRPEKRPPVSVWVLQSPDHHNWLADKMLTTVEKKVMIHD
5-HT2A receptor, sequence (P28223 whole entry): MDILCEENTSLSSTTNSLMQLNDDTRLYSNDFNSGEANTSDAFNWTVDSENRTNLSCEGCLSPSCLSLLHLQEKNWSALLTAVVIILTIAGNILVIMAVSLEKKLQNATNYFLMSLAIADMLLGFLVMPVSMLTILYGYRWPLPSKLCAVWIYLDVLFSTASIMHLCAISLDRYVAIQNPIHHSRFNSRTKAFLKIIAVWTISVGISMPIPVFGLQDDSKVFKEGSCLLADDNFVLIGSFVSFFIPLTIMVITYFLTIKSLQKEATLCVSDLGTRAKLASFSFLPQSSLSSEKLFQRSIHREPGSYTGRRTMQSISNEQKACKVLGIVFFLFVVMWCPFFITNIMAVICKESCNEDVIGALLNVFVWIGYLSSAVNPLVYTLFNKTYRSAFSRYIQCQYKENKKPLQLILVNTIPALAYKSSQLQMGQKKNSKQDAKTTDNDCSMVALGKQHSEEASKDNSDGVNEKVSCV
T10 sequence (P28565 whole entry): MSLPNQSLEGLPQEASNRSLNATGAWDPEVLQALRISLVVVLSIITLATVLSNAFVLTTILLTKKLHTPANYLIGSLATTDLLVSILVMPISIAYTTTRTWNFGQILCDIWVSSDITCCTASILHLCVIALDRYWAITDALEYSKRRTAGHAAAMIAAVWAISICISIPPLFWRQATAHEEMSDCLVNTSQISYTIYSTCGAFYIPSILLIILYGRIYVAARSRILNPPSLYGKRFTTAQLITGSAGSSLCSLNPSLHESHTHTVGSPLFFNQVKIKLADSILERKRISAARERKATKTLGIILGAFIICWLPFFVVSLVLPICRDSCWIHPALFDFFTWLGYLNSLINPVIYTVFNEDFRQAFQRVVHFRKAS
T12 sequence (P48039 whole entry): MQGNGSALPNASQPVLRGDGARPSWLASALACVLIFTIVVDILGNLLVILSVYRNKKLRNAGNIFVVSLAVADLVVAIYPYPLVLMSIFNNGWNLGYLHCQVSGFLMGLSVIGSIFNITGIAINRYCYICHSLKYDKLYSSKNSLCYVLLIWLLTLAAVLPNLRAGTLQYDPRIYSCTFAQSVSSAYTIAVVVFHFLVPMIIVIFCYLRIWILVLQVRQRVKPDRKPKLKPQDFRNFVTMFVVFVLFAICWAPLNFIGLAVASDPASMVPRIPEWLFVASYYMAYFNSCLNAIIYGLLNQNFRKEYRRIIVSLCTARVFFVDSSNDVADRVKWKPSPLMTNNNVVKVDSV

| SMILES | HT7, percent of control-specific binding (5-HT7 (h)) | D3, percent of control-specific binding (D3 (h)) | EC50 (5-HT1A receptor [1]) | Ki [2] | HT2B, percent of control-specific binding (5-HT2B (h)) | HT2C, percent of control-specific binding (5-HT2C (h)) | Ki (5-HT2A receptor) | Ki (5-HT1A receptor [3]) | HT1B, percent of control-specific binding (5-HT1B (h)) | inhibition at 10 µM (alpha2A (h)) | DAT, percent of control-specific binding (DAT (h)) | HT1D, percent of control-specific binding (5-HT1D (r)) | NET, percent of control-specific binding (NET (h)) | MT1, percent of control-specific binding (MT1 (ML1A) (h)) | D2, percent of control-specific binding (D2 (h)) | 5-HT1A receptor engagement (change in cAMP levels), in words (5-HT1A receptor [1]) | SERT binding, binding curve in words [2] | further results |
| --- | --- | --- | --- | --- | --- | --- | --- | --- | --- | --- | --- | --- | --- | --- | --- | --- | --- | --- |
| Brc1cc2c(cc1CCN1CCCC1)OCO2 [A(XXV)] | 71% | 70% | 0.342 µM | 10.9 µM | 76% | 87% | 7.65 µM | 0.0635 µM | 0% | 61% | 11% | 30% | 28% | 1% | 21% |  |  |  |
| FC1(F)Oc2ccc(CCN3CCCC3)cc2O1 [A(XXVIII)] | 15% | 16% | 374 µM | 23.7 µM | 15% | 53% | 15.6 µM | 1.98 µM | 0% | 26% | 0% | 1% | 0% | 0% | 6% |  |  |  |
| OCCNCCc1cc2c(cc1Br)OCO2 [A(XXX)] | 61% | 30% | 11.7 µM | 84.3 µM | 54% | 57% | 11.7 µM | 0.295 µM | 0% | 6% | 0% | 39% | 6% | 0% | 4% |  |  |  |
| CNC(C)Cc1ccc2c(c1)OCO2 (stereo not drawn) [MDMA, reference compound] | 58% | 18% |  |  | 85% | 96% |  | 11 µM | −21% |  | 28% | 18% | 3% | 1% | −10% | mild | bind SERT to varying degrees | EC50 (5-HT1A receptor [1]; reduction of cAMP in +5-HT1A cells stimulated with 4 μM forskolin, 20 min, read-out: 5-HT1A, EC50): > 1000 µM; Ki ([2]; read-out: SERT, Ki): 5.8 µM; Ki (5-HT2A receptor; read-out: 5-HT2A, Ki, competition with 1 nM [3H]ketanserin, test compound 3 nM to 1 mM): 39.9 µM; α-2A, percent of control-specific binding (alpha2A (h)): 27% |
| COc1cc(CCN)cc(OC)c1OC [mescaline, 3,4,5 trimethoxyphenethylamine] |  | −13% |  | 406 µM | 80% | 95% |  |  | 11% | 57% | −1% | 70% | −9% | 6% | 3% | no | SERT binding at higher ligand concentrations |  |
